Results published in BigSolDB 2.1.

Compound `O=C1CN=C(c2ccccc2Cl)c2cc([N+](=O)[O-])ccc2N1` has a solubility (mole fraction) (in NMP, 298.2 K) of 0.0132, a solubility (mole fraction) (in NMP, 303.2 K) of 0.0142 and a solubility (mole fraction) (in NMP, 308.2 K) of 0.0187. For the same compound, the solubility (mole fraction) (in NMP, 313.2 K) was 0.0207, the solubility (mole fraction) (in NMP, 318.2 K) was 0.0222 and the solubility (mole fraction) (in PEG-200, 298.2 K) was 0.01. It also gave a solubility (mole fraction) (in PEG-200, 303.2 K) of 0.01, a solubility (mole fraction) (in PEG-200, 308.2 K) of 0.0134 and a solubility (mole fraction) (in PEG-200, 313.2 K) of 0.0168. For the same compound, the solubility (mole fraction) (in PEG-200, 318.2 K) was 0.0239, the solubility (mole fraction) (in ethanol, 298.2 K) was 0.000348 and the solubility (mole fraction) (in ethanol, 303.2 K) was 0.000409. The solubility (mole fraction) (in ethanol, 308.2 K) was 0.000533, the solubility (mole fraction) (in ethanol, 313.2 K) was 0.00058 and the solubility (mole fraction) (in ethanol, 318.2 K) was 0.000652. The solubility (mole fraction) (in propylene glycol, 298.2 K) was 0.000641, the solubility (mole fraction) (in propylene glycol, 303.2 K) was 0.00104 and the solubility (mole fraction) (in propylene glycol, 308.2 K) was 0.00108. The solubility (mole fraction) (in propylene glycol, 313.2 K) was 0.00116, the solubility (mole fraction) (in propylene glycol, 318.2 K) was 0.00138 and the solubility (mole fraction) (in water, 298.2 K) was 1.9e-07. The solubility (mole fraction) (in water, 303.2 K) was 2.4e-07, the solubility (mole fraction) (in water, 308.2 K) was 2.6e-07 and the solubility (mole fraction) (in water, 313.2 K) was 2.9e-07. For the same compound, the solubility (mole fraction) (in water, 318.2 K) was 3.2e-07.
